{"source": "paper PMC8617627", "about": "“Novel DYRK1A Inhibitor Rescues Learning and Memory Deficits in a Mouse Model of Down Syndrome” (Pharmaceuticals, 2021)", "assay_in_all_cases": "Kinase profile (33P ATP filter binding)", "assay_type_in_all_cases": "biochemical", "settings_in_all_cases": "read-out: Remaining protein kinase activity", "key": {"[1]": {"target": "CK2 (Homo sapiens, UniProt P68400)", "sequence (P68400 whole entry)": "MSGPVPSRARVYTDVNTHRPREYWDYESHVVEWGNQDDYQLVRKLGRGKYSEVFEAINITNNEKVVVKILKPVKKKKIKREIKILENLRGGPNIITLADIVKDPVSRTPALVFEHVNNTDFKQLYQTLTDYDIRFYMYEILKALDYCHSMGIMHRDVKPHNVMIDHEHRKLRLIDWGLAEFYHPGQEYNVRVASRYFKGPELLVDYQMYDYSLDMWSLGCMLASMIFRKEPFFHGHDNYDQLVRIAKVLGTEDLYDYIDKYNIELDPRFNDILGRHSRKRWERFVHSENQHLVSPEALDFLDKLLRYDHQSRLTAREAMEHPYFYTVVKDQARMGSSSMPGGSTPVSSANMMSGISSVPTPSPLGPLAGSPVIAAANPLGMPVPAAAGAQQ"}, "[2]": {"target": "T1, EPH-B4 (Homo sapiens, UniProt P54760)", "T1 sequence (P54760 16-987)": "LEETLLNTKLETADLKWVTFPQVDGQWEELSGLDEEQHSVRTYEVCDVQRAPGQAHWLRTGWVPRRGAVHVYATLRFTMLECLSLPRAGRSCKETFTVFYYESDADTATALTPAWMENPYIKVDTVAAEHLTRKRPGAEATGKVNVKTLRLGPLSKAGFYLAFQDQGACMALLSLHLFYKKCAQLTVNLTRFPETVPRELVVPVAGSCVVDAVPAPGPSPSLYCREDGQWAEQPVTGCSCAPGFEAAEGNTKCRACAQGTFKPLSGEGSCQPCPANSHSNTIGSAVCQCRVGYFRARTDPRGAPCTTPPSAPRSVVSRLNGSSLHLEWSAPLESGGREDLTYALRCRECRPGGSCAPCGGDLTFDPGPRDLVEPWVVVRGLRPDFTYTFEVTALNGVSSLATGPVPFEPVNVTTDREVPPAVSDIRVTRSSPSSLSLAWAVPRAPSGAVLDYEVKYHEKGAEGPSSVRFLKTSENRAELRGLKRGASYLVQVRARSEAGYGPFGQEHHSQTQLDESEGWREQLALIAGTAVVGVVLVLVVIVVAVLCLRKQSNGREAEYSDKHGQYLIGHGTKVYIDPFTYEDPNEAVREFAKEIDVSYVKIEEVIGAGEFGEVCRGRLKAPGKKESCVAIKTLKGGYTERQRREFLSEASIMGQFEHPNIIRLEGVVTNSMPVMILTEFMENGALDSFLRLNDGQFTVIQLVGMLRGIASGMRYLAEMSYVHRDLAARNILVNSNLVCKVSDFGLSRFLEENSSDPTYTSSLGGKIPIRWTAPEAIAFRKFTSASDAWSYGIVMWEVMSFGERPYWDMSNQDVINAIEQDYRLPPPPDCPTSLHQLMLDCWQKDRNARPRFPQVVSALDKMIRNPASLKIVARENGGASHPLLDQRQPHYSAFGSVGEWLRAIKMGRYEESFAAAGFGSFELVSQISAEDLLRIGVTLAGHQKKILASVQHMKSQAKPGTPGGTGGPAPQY"}, "[3]": {"target": "IR (Homo sapiens, UniProt P06213)", "sequence (P06213 28-1382)": "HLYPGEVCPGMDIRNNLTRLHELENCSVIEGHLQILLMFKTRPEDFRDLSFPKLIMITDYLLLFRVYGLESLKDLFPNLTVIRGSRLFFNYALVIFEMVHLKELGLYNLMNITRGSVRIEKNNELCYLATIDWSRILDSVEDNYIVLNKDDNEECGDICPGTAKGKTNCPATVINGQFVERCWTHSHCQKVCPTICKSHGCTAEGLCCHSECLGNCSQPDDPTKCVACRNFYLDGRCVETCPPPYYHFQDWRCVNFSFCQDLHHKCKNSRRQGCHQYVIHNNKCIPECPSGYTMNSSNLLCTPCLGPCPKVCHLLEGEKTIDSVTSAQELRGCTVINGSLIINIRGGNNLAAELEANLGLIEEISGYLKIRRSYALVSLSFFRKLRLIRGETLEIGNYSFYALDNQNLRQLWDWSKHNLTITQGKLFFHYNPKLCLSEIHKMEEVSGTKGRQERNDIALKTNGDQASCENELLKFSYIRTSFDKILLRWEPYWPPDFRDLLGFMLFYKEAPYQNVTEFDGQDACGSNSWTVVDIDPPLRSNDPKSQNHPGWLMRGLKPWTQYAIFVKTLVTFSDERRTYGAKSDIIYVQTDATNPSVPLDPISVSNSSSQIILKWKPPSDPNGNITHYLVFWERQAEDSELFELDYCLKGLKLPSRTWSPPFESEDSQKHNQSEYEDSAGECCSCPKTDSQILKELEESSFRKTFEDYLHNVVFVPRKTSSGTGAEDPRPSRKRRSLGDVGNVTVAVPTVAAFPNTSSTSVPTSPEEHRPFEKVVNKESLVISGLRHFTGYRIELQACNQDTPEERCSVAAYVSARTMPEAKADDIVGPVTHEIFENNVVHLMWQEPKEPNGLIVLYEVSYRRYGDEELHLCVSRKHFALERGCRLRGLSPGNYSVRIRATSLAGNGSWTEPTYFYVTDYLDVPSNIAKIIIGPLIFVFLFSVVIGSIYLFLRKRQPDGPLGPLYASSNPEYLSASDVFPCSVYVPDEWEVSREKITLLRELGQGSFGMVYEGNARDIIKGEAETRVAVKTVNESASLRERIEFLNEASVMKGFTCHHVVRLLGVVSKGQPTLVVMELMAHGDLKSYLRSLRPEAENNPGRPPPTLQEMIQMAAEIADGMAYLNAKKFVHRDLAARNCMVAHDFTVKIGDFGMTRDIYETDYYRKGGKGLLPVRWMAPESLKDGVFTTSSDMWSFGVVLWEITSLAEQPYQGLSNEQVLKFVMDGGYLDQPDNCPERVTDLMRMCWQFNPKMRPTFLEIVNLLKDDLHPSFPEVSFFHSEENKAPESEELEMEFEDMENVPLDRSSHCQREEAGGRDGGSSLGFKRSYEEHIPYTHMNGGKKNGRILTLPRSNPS"}, "[4]": {"target": "MEKK1 (Homo sapiens, UniProt Q13233)", "sequence (Q13233 whole entry)": "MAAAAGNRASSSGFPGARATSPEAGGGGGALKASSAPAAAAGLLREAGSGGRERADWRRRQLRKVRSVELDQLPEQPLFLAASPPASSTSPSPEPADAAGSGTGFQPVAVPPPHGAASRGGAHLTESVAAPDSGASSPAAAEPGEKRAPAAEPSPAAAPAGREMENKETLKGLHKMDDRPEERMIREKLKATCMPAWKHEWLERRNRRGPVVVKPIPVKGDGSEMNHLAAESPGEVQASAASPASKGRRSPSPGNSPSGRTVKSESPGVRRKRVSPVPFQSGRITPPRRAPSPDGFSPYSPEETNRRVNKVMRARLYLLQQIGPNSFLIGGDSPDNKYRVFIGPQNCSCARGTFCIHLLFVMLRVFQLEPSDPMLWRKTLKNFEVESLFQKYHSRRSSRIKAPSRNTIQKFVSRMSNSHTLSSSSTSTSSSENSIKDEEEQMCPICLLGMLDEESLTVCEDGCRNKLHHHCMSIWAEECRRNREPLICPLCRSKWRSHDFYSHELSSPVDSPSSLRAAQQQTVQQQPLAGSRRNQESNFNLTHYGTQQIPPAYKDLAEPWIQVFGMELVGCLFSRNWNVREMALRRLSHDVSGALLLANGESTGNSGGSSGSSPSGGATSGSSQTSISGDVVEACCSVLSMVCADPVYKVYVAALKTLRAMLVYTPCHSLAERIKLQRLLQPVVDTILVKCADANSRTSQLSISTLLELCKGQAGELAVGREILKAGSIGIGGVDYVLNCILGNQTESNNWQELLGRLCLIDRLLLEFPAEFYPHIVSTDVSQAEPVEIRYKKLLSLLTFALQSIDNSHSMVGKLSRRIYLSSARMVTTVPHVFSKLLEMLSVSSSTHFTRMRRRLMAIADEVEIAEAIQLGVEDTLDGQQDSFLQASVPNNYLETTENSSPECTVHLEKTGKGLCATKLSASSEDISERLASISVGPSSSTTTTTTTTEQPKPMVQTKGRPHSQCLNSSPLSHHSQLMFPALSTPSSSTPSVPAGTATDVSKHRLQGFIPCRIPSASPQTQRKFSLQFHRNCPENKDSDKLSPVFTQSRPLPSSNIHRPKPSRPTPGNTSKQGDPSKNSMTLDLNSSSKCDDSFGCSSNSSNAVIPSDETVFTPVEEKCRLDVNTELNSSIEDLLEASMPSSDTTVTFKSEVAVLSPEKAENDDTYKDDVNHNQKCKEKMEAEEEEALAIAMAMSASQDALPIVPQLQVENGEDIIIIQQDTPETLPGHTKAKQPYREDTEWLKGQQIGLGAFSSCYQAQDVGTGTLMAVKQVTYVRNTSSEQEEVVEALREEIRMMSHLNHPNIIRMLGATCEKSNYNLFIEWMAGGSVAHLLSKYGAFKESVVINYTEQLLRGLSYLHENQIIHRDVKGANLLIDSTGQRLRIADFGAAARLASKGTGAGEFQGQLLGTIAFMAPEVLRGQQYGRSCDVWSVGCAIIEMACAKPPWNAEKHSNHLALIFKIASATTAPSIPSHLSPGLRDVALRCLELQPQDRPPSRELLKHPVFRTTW"}, "[5]": {"target": "PKCa (Homo sapiens, UniProt P17252)"}, "[6]": {"target": "PRK2 (Homo sapiens, UniProt Q16513)", "sequence (Q16513 whole entry, species assumed)": "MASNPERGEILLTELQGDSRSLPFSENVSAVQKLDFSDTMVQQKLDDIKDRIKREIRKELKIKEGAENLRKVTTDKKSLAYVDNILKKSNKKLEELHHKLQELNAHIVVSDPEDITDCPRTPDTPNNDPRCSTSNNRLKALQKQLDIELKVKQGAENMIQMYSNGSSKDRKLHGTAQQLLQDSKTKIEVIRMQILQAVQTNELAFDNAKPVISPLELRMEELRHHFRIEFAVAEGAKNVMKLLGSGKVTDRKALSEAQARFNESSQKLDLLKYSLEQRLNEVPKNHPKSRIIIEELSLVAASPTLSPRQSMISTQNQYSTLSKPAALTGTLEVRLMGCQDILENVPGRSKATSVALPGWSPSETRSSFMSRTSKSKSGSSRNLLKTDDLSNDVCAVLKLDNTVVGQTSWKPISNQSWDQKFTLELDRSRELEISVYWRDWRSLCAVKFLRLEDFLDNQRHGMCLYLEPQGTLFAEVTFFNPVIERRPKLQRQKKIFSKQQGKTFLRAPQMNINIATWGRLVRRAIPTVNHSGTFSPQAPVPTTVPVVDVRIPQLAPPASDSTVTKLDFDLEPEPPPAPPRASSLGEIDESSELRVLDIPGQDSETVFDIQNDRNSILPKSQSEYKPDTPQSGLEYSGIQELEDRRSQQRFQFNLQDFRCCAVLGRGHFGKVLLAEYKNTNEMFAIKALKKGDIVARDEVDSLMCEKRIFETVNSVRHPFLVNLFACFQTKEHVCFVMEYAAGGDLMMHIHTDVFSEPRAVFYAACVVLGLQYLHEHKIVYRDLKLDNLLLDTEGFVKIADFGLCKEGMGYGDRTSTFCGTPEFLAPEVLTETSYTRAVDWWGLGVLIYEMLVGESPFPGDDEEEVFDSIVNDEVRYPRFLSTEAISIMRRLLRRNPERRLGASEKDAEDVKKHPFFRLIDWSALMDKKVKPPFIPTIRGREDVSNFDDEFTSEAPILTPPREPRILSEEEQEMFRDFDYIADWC"}, "[7]": {"target": "T2, TAO1 (Homo sapiens, UniProt Q7L7X3)", "T2 sequence (Q7L7X3 1-1001)": "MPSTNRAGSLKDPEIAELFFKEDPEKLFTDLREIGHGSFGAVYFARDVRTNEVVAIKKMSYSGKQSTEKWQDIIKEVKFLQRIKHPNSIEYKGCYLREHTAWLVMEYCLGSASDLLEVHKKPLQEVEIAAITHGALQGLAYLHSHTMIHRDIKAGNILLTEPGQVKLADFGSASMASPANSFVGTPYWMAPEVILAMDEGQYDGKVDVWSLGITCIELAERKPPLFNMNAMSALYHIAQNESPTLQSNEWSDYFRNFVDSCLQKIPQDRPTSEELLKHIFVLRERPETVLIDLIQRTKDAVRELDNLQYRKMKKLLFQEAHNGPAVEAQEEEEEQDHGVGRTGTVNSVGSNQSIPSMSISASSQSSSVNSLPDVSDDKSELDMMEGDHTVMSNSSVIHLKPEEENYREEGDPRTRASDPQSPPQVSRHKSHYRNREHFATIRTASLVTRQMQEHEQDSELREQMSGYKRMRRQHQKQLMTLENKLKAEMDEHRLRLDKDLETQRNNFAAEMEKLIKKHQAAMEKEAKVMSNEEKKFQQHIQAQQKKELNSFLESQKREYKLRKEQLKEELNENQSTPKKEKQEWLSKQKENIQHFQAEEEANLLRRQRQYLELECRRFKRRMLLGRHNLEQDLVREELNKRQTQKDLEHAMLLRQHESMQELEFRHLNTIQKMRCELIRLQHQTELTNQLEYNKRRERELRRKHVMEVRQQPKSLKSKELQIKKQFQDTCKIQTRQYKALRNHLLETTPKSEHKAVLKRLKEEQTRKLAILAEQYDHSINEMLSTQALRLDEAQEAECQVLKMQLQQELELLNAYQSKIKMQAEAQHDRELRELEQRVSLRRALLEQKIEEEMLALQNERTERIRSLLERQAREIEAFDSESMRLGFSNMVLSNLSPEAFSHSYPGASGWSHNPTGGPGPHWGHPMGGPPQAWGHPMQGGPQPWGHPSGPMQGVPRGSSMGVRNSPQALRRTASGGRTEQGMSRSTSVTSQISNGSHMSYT"}}, "note": "Like-named read-outs stand apart in the source and are kept apart here.", "data": [{"smiles": "COc1ccc2sc(-c3cncc(N)c3)nc2c1", "note": "[compound 1, 5-(5-Methoxybenzo[d]thiazol-2-yl)pyridin-3-amine]", "values": [{"measurement": "remaining activity at 1 µM", "setting": "[1]; CK2, 1 μM", "result": 103, "unit": "%"}, {"measurement": "remaining activity at 100 µM", "setting": "[1]; CK2", "result": 21, "unit": "%"}, {"measurement": "remaining activity at 1 µM", "setting": "[2]; EPH-B4, 1 μM", "result": 112, "unit": "%"}, {"measurement": "remaining activity at 100 µM", "setting": "[2]; EPH-B4, 100 μM", "result": 97, "unit": "%"}, {"measurement": "remaining activity at 1 µM", "setting": "[3]; IR, 1 μM", "result": 108, "unit": "%"}, {"measurement": "remaining activity at 100 µM", "setting": "[3]; IR, 100 μM", "result": 45, "unit": "%"}, {"measurement": "remaining activity at 1 µM", "setting": "[4]; MEKK1, 1 μM", "result": 132, "unit": "%"}, {"measurement": "remaining activity at 100 µM", "setting": "[4]; MEKK1, 100 μM", "result": 107, "unit": "%"}, {"measurement": "remaining activity at 1 µM", "setting": "[5]; PKCa, 1 μM", "result": 110, "unit": "%"}, {"measurement": "remaining activity at 100 µM", "setting": "[5]; PKCa, 100 μM", "result": 63, "unit": "%"}, {"measurement": "remaining activity at 1 µM", "setting": "[6]; PRK2, 1 μM", "result": 103, "unit": "%"}, {"measurement": "remaining activity at 100 µM", "setting": "[6]; PRK2, 100 μM", "result": 74, "unit": "%"}, {"measurement": "remaining activity at 1 µM", "setting": "[7]; TAO1, 1 μM", "result": 97, "unit": "%"}, {"measurement": "remaining activity at 100 µM", "setting": "[7]; TAO1, 100 μM", "result": 57, "unit": "%"}]}, {"smiles": "COc1ccc2sc(-c3cncc(NC(C)=O)c3)nc2c1", "note": "[PST-001, N-(5-(5-Methoxybenzo[d]thiazol-2-yl)pyridin-3-yl)acetamide]", "values": [{"measurement": "remaining activity at 100 µM", "setting": "[1]; CK2", "result": 95, "unit": "%"}, {"measurement": "remaining activity at 1 µM", "setting": "[1]", "result": 102, "unit": "%"}, {"measurement": "remaining activity at 100 µM", "setting": "[2]", "result": 130, "unit": "%"}, {"measurement": "remaining activity at 1 µM", "setting": "[3]", "result": 116, "unit": "%"}, {"measurement": "remaining activity at 100 µM", "setting": "[3]", "result": 120, "unit": "%"}, {"measurement": "remaining activity at 1 µM", "setting": "[4]", "result": 126, "unit": "%"}, {"measurement": "remaining activity at 100 µM", "setting": "[4]", "result": 109, "unit": "%"}, {"measurement": "remaining activity at 1 µM", "setting": "[5]", "result": 119, "unit": "%"}, {"measurement": "remaining activity at 100 µM", "setting": "[5]", "result": 85, "unit": "%"}, {"measurement": "remaining activity at 1 µM", "setting": "[6]", "result": 102, "unit": "%"}, {"measurement": "remaining activity at 100 µM", "setting": "[6]", "result": 101, "unit": "%"}, {"measurement": "remaining activity at 1 µM", "setting": "[7]", "result": 102, "unit": "%"}, {"measurement": "remaining activity at 100 µM", "setting": "[7]", "result": 111, "unit": "%"}]}]}
